Source: patent US9850283B2, “Macrocyclic inhibitors of the PD-1/PD-L1 and CD80(B7-1)/PD-L1 protein/protein interactions” (BRISTOL-MYERS SQUIBB COMPANY, priority 2013, dated 2017)
pIC50: −log10 of the molar value. Where two headings read alike, the source gives them in different places. Starred links: 1 amine or outer side, 2 acyl side, 3 side chain; linkers in the order of their positions; H or OH if unused. Positions of bridges follow the written chain, without caps; N, C: chain ends. Non-standard residues stand in square brackets, D forms with d. Residues, ends and D or L forms follow the SMILES beside them. ξ: configuration not given here. X3 = O=C([C@@H]1C[C@@H](Cc2ccc(F)cc2)CN1[*:1])[*:2]; Ala(indol-4-yl) = N[C@@H](Cc1cccc2[nH]ccc12)C(=O)O; Tyr(3,5-Br2) = N[C@@H](Cc1cc(Br)c(O)c(Br)c1)C(=O)O; Phe(4-Me) = Cc1ccc(C[C@H](N)C(=O)O)cc1; Bta = N[C@@H](Cc1csc2ccccc12)C(=O)O; ξPro(4R-OH) = O=C(O)C1C[C@@H](O)CN1; Hyp = O=C(O)[C@@H]1C[C@@H](O)CN1; NMeF = CN[C@@H](Cc1ccccc1)C(=O)O; 2Pal = N[C@@H](Cc1ccccn1)C(=O)O; dHyp = O=C(O)[C@H]1C[C@H](O)CN1; NMeNle = CCCC[C@H](NC)C(=O)O; NMeA = CN[C@@H](C)C(=O)O; Orn = NCCC[C@H](N)C(=O)O; Dab = NCC[C@H](N)C(=O)O; Dap = NC[C@H](N)C(=O)O; Sar = CNCC(=O)O

Columns and labels:
[1] = target: T1, Human PD-L1/PD-1 (Homo sapiens, UniProt Q9NZQ7); test: HTRF PD-1-Ig/PD-L1-His binding assay (human PD-L1); details: cluster symbol; read-out: HTRF IC50 cluster
T1 construct: made in house; host or cells: HEK293T
T1 sequence (Q9NZQ7 with tags, fused parts or gaps): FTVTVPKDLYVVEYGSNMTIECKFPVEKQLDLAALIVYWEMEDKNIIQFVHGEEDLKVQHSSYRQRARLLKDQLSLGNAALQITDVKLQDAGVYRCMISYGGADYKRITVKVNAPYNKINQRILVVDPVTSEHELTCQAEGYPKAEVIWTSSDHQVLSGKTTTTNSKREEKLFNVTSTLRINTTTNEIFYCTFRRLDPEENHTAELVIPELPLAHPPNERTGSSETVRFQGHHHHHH
Method in brief: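 The time-resolved fluorescence signal comes from Eu-cryptate anti-Ig (1 nM) and APC anti-His (20 nM) antibodies bound to a PD-1-Ig/PD-L1-His complex. Both partners lack transmembrane regions.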

[2] = target: T2, LK35.2-hPD-L1 cells / PE-labeled PD-1-Ig (Homo sapiens, UniProt Q9NZQ7); test: LK35.2-hPD-L1 cell binding high-content screening assay; format: cell-based; details: cluster symbol, read-out: CBA IC50 cluster
T2 construct: expressed in transfected cells; host or cells: LK35.2 mouse B cell line
T2 sequence (Q9NZQ7 19-290): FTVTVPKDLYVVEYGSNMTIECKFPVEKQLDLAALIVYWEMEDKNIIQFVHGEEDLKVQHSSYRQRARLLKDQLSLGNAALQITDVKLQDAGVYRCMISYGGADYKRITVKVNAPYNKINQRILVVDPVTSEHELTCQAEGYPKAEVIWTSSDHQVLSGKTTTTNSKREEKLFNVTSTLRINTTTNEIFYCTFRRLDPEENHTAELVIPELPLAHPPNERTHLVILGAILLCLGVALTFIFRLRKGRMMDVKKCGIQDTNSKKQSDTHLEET
Method in brief: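 Mouse LK35.2 B cells stably overexpressing human PD-L1 were cultured overnight in RPMI with 10% FCS, then given compound and PE-labeled human PD-1-Ig (1 nM final) for 1 h at 37 °C. After three dPBS washes, bound fluorescence was quantified by high-content imaging.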

[3] = cell binding assay, cell line not given
[4] = cell line of CBA not given (LK35.2-hPD-L1 or 293T-hPD-L1)

Compound	pIC50 [1]	pIC50 [2, 3]	pIC50 [2, 4]
CCCC[C@H]1C(=O)N(C)CC(=O)N[C@@H](CC(=O)O)C(=O)N[C@@H](C(C)C)C(=O)N(C)[C@@H](Cc2ccccc2)C(=O)N[C@@H](Cc2ccc(O)cc2)C(=O)N(C)CC(=O)N[C@@H](Cc2c[nH]c3ccccc23)C(=O)N[C@@H](Cc2ccc(O)cc2)C(=O)N[C@@H](Cc2ccc(O)cc2)C(=O)N[C@H](C(=O)NCC(N)=O)CSCC(=O)N[C@@H](Cc2ccccc2)C(=O)N(C)[C@@H](Cc2ccccc2)C(=O)N1C [Example 3519] (HELM PEPTIDE1{[O=C(C[*:3])[*:2]].F.[meF].[CCCC[C@@H](C(=O)[*:2])N(C)[*:1]].[Sar].D.V.[meF].Y.[Sar].W.Y.Y.C.G.[am]}$PEPTIDE1,PEPTIDE1,1:R3-14:R3$$$V2.0)	7.52 to 8.17	7.14 to 8.32	
CCCC[C@H]1C(=O)N(C)[C@@H](CCCC)C(=O)N[C@@H](C)C(=O)N[C@H](C(=O)NCC(N)=O)CSCC(=O)N[C@@H](Cc2ccc(O)cc2)C(=O)N(C)[C@@H](C)C(=O)N[C@@H](CC(=O)O)C(=O)N2CCC[C@H]2C(=O)N[C@@H](Cc2c[nH]cn2)C(=O)N[C@@H](CCCCN)C(=O)N2C[C@H](O)CC2C(=O)N[C@@H](Cc2c[nH]c3ccccc23)C(=O)N[C@@H](CO)C(=O)N[C@@H](Cc2c[nH]c3ccccc23)C(=O)N1C (stereo partly drawn) [Example 1202] ({CH2CO}-Y[NMeA]DPHK[ξPro(4R-OH)]WSW[NMeNle][NMeNle]ACG-NH2; thioether N-14)	8.17 to 9.41		8.33 to 9.80
CCCC[C@H]1C(=O)N(C)[C@@H](CCCC)C(=O)N[C@@H](CCCNC(=N)N)C(=O)N[C@H](C(=O)NCC(N)=O)CSCC(=O)N[C@@H](Cc2ccccn2)C(=O)N(C)[C@@H](C)C(=O)N[C@@H](CC(N)=O)C(=O)N2CCC[C@H]2C(=O)N[C@@H](Cc2c[nH]cn2)C(=O)N[C@@H](CC(C)C)C(=O)N2C[C@H](O)C[C@H]2C(=O)N[C@@H](Cc2c[nH]c3ccccc23)C(=O)N[C@@H](CO)C(=O)N[C@@H](Cc2c[nH]c3ccccc23)C(=O)N1C [Example 7025] ({CH2CO}-[2Pal][NMeA]NPHL[Hyp]WSW[NMeNle][NMeNle]RCG-NH2; thioether N-14)	< 7.52	< 7.13	
CCCC[C@H]1C(=O)N(C)CC(=O)N[C@@H](CC(=O)O)C(=O)N[C@@H](C(C)C)C(=O)N(C)[C@@H](Cc2ccccc2)C(=O)N[C@@H](Cc2cc(Br)c(O)c(Br)c2)C(=O)N(C)CC(=O)N[C@@H](Cc2c[nH]c3ccccc23)C(=O)N[C@@H](Cc2ccc(O)cc2)C(=O)N[C@@H](CC(C)C)C(=O)N[C@H](C(=O)NCC(N)=O)CSCC(=O)N[C@@H](Cc2ccccc2)C(=O)N(C)[C@@H](Cc2ccccc2)C(=O)N1C [Example 3113] ({CH2CO}-F[NMeF][NMeNle][Sar]DV[NMeF][Tyr(3,5-Br2)][Sar]WYLCG-NH2; thioether N-13)	7.52 to 8.17		7.14 to 8.32
CCCC[C@H]1C(=O)N(C)[C@@H](CCCC)C(=O)N[C@@H](C)C(=O)N[C@H](C(=O)NCC(N)=O)CSCC(=O)N[C@@H](Cc2ccc(O)cc2)C(=O)N(C)[C@@H](C)C(=O)N[C@@H](CC(N)=O)C(=O)N2CCC[C@H]2C(=O)N[C@@H](Cc2cnc[nH]2)C(=O)N[C@@H](CC(C)C)C(=O)N2CCC[C@H]2C(=O)N[C@@H](Cc2c[nH]c3ccccc23)C(=O)N[C@@H](CO)C(=O)N[C@@H](Cc2csc3ccccc23)C(=O)N1C [Example 1049] ({CH2CO}-Y[NMeA]NPHLPWS[Bta][NMeNle][NMeNle]ACG-NH2; thioether N-14)	7.52 to 8.17		8.33 to 9.80
CCCC[C@H]1C(=O)N(C)[C@@H](CCCC)C(=O)N[C@@H](C)C(=O)N[C@H](C(=O)NCC(N)=O)CSCC(=O)N[C@@H](Cc2ccc(O)cc2)C(=O)N(C)[C@@H](C)C(=O)N[C@@H](CC(=O)O)C(=O)N2CCC[C@H]2C(=O)N[C@@H](Cc2c[nH]cn2)C(=O)N[C@@H](CCC(=O)O)C(=O)N2C[C@H](Cc3ccc(F)cc3)C[C@H]2C(=O)N[C@@H](Cc2c[nH]c3ccccc23)C(=O)N[C@@H](CCN)C(=O)N[C@@H](Cc2c[nH]c3ccccc23)C(=O)N1C [Example 13012] ({CH2CO}-Y[NMeA]DPHE[X3]W[Dab]W[NMeNle][NMeNle]ACG-NH2; thioether N-14)	8.17 to 9.41	8.33 to 9.80	
CCCC[C@H]1C(=O)N(C)CC(=O)N[C@@H](CC(=O)O)C(=O)N[C@@H](C(C)C)C(=O)N(C)[C@@H](Cc2ccccc2)C(=O)N[C@@H](Cc2ccc(O)cc2)C(=O)N(C)CC(=O)N[C@@H](Cc2c[nH]c3ccccc23)C(=O)N[C@@H](Cc2ccc(O)cc2)C(=O)N[C@@H](CC(C)C)C(=O)N[C@H](C(=O)NCC(N)=O)CSCC(=O)N[C@@H](Cc2ccc(C)cc2)C(=O)N(C)[C@@H](Cc2ccccc2)C(=O)N1C [Example 3094] ({CH2CO}-[Phe(4-Me)][NMeF][NMeNle][Sar]DV[NMeF]Y[Sar]WYLCG-NH2; thioether N-13)	7.52 to 8.17		7.14 to 8.32
CCCC[C@H]1C(=O)N(C)CC(=O)N[C@@H](CC(=O)O)C(=O)N[C@@H](C(C)C)C(=O)N(C)[C@@H](Cc2ccccc2)C(=O)N[C@@H](Cc2ccc(O)cc2)C(=O)N2C[C@@H](O)C[C@@H]2C(=O)N[C@@H](Cc2c[nH]c3ccccc23)C(=O)N[C@@H](Cc2ccc(O)cc2)C(=O)N[C@@H](CC(C)C)C(=O)N[C@H](C(=O)NCC(N)=O)CSCC(=O)N[C@@H](Cc2ccccc2)C(=O)N(C)[C@@H](Cc2ccccc2)C(=O)N1C [Example 3576] ({CH2CO}-F[NMeF][NMeNle][Sar]DV[NMeF]Y[dHyp]WYLCG-NH2; thioether N-13)	7.52 to 8.17	7.14 to 8.32	
CCCC[C@H]1C(=O)N(C)[C@@H](CCCC)C(=O)N[C@@H](CN)C(=O)N[C@H](C(=O)NCC(N)=O)CSCC(=O)N[C@@H](Cc2ccc(O)cc2)C(=O)N2CCC[C@H]2C(=O)N[C@@H](CC(=O)O)C(=O)N2CCC[C@H]2C(=O)N[C@@H](CN)C(=O)N[C@@H](CC(=O)O)C(=O)N2C[C@H](O)C[C@H]2C(=O)N[C@@H](Cc2c[nH]c3ccccc23)C(=O)N[C@@H](CCN)C(=O)N[C@@H](Cc2csc3ccccc23)C(=O)N1C [Example 1222] ({CH2CO}-YPDP[Dap]D[Hyp]W[Dab][Bta][NMeNle][NMeNle][Dap]CG-NH2; thioether N-14)	7.52 to 8.17		< 7.13
CCCC[C@H]1C(=O)N(C)[C@@H](CCCC)C(=O)N[C@@H](CCCNC(=N)N)C(=O)N[C@H](C(=O)NCC(N)=O)CSCC(=O)N[C@@H](Cc2cccc3[nH]ccc23)C(=O)N(C)[C@@H](C)C(=O)N[C@@H](CC(N)=O)C(=O)N2CCC[C@H]2C(=O)N[C@@H](Cc2cnc[nH]2)C(=O)N[C@@H](CC(C)C)C(=O)N(C)CC(=O)N[C@@H](Cc2c[nH]c3ccccc23)C(=O)N[C@@H](CO)C(=O)N[C@@H](Cc2c[nH]c3ccccc23)C(=O)N1C [Example 1094] ({CH2CO}-[Ala(indol-4-yl)][NMeA]NPHL[Sar]WSW[NMeNle][NMeNle]RCG-NH2; thioether N-14)	7.52 to 8.17		8.33 to 9.80
CCCC[C@H]1C(=O)N(C)[C@@H](CCCC)C(=O)N[C@@H](CCCN)C(=O)N[C@H](C(=O)NCC(N)=O)CSCC(=O)N[C@@H](Cc2ccc(O)cc2)C(=O)N(C)[C@@H](C)C(=O)N[C@@H](CC(N)=O)C(=O)N2CCC[C@H]2C(=O)N[C@@H](CN)C(=O)N[C@@H](CC(C)C)C(=O)N2C[C@H](O)C[C@H]2C(=O)N[C@@H](Cc2c[nH]c3ccccc23)C(=O)N[C@@H](CO)C(=O)N[C@@H](Cc2csc3ccccc23)C(=O)N1C [Example 1139] ({CH2CO}-Y[NMeA]NP[Dap]L[Hyp]WS[Bta][NMeNle][NMeNle][Orn]CG-NH2; thioether N-14)	8.17 to 9.41		8.33 to 9.80
